The conditions of series [1]: dissolved upon heating; room temperature; cited from earlier work.
A further series deals with R6/2 mice. To be noted: cited from earlier work.
For series [2], the system named is histone acetylation in mouse brain. Nature of the series: Histone acetylation in brain tissue (central pharmacodynamics). To be noted: 200 mg/kg sc; positive control.
Description: Cortical tissue from the mice was assessed using specific antibodies for increases in acetylation of specific lysine residues on Histones H3 (H3K4, H3K9, H3K14) and H4 (H4K5) as well as global acetylation of H3 (Ac-H3) and H4 (Ac-H4). The acetylation level was normalized to total H3 and H4 expression level. The samples from the rest of the brain were analyzed for terminal 4b levels at the time of sacrifice. […] Mouse brains were harvested, dissected, immediately frozen in liquid nitrogen and stored at −80°C. Mouse brain tissue was homogenized (polytron homogenizer, 20 s) in 2 volumes of histone extraction buffer (1×PBS, 5% Triton X-100 (v/v), 3 mM DTT, 1 mM orthovanadate, 5 mM NaF, 1 mM PMSF, 5 mM Na Butyrate, Roche complete protease inhibitor tablet) and centrifuged at 900 g for 8 min at 4°C. The resulting pellet was washed twice in 1 ml of histone extraction buffer before being re-suspended in 2–3 volumes of 0.2 M HCl. Samples were then vortexed briefly and left to shake vigorously for 3 h at 4°C using a VXR Vibrax 1.5 ml polypropylene tube shaker (IKA). After shaking, samples were centrifuged at 900 g for 8 min at 4°C and the resulting supernatant was retained and neutralized with 0.2 volumes of 1 M NaOH.

Take `O=C(CCCCCCC(=O)Nc1ccccc1)NO` [SAHA]: the stability in cyclodextrins entry in series [1] is listed as “stable for seven days”. In addition, in the series with R6/2 mice (drinking water), the “motor dysfunction (rotarod performance, grip strength)” value is listed as “significant improvement in motor dysfunction”. Further, the maximum tolerated dose in the series with R6/2 mice (in drinking water) was 0.67 g/L. The “histone acetylation in cortical tissue” value in series [2] is “robust enhancement of acetylation of H3K9, H4K5, and total acetylated levels of H3 and H4”.
